Measurements: patent US12059464B2, “Combination therapy involving antibodies against Claudin 18.2 for treatment of cancer” (Astellas Pharma Inc., priority 2012, dated 2024)

Tests used:
[1] = system: HEK293~CLDN18.2 transfectants; assay: Early treatment of HEK293~CLDN18.2 tumor xenografts; assay type: in vivo, nude mice; conditions: isotype control, 200 μg twice per week for 6 weeks
From the text: Moreover, advanced tumor treatment experiments were initiated up to 9 days after tumor cell inoculation when tumors had reached volumes of about 60-120 mm^3.
Nude mice were subcutaneously inoculated with 1×10^7 HEK293˜CLDN18.2 transfectants. Treatment of 10 mice per group started 3 days after tumor inoculation. […] Not only time to death was prolonged, but 4 of 10 mice survived the entire observation period of 210 days.

KatoIII cells [2] = assay: KatoIII cells pretreated with Irinotecan or Docetaxel: cell growth and cell cycle arrest; assay type: cell-based, human; conditions: KatoIII cells pretreated for 4 days
Method: Cell cycle stages were determined based on measurement of cellular DNA content. This allows one to discriminate between cells in the G1-, S- or G2-phase of the cell cycle. In the S-phase DNA duplication occurs whereas in the G2-phase cells grow and prepare for mitosis. Cell cycle analysis was done using the CycleTEST PLUS DNA Reagent Kit from BD Biosciences following the manufacturer's protocol. Flow cytometry acquisition and analysis were performed by using BD FACS CantoII (BD Biosciences) and FlowJo (Tree Star) software.
KatoIII cells were pretreated for 4 days with Irinotecan or Docetaxel and analysed for CLDN18.2 expression and cell cycle arrest.

KatoIII cells [3] = assay: IMAB362-induced ADCC (luciferase) on KatoIII cells pretreated with Irinotecan, Docetaxel or Cisplatin; assay type: cell-based, human; conditions: KatoIII pretreated for 3 days; for level of viable cells compared to medium cultivated target cells: Irinotecan 1000 ng/ml, Docetaxel 5 ng/ml, Cisplatin 2000 ng/ml; for effect of pretreatment on potency of IMAB362 to induce ADCC: human PBMC effectors
Method: Peripheral blood mononuclear cells (PBMCs) including NK cells, monocytes, mononuclear cells or other effector cells from healthy human donors were purified by Ficoll Hypaque density centrifugation. Washed effector cells were seeded in X-Vivo medium. KatoIII cells which express CLDN18.2 endogenously and are of gastric origin were used as target cells in this setting. Target cells stably expressed luciferase, lucifer yellow, which is oxidized by viable cells only.

KatoIII cells [4] = assay: Cell cycle analysis and CLDN18.2 surface expression of KatoIII cells cultivated with cytostatic compounds; conditions: for cell cycle arrest (phase of the cell cycle): KatoIII cells cultivated with cytostatic compound, DNA content by flow cytometry; for CLDN18.2 expression: KatoIII cells, cultivation for 96 hours
Method: Epirubicin (Pfizer) was tested at a concentration of 10 or 100 ng/ml, 5-FU (Neofluor from NeoCorp AG) was tested at a concentration of 10 or 100 ng/ml, and oxaliplatin (Hospira) was tested at a concentration of 50 or 500 ng/ml.
As secondary reagent goat-anti-huIgG-APC from Dianova was used.
Cell cycle stages were determined based on measurement of cellular DNA content. […] Cell cycle analysis was done using the CycleTEST PLUS DNA Reagent Kit from BD Biosciences following the manufacturer's protocol. Flow cytometry acquisition and analysis were performed by using BD FACS CantoII (BD Biosciences) and FlowJo (Tree Star) software.

PBMCs = assay: Expansion of PBMC cultures with ZA/IL-2; assay type: cell-based, human; conditions: 14 days, 300 U/ml IL-2
Method: PBMCs were harvested from healthy human donors and cultures were treated with a single dose of ZA. […] FIG. 8a. […] FIG. 8b. Increase in cell numbers was determined by counting living cells on day 6, 8, 11 and 14.

Vγ9Vδ2 T cells = assay: Enrichment of Vγ9Vδ2 T cells in co-culture with monocytes ± ZA; assay type: cell-based, human; conditions: co-cultures 14 days, ±1 μM ZA
Method: The enrichment of Vγ9Vδ2 T cells in the co-cultures after 14 days was determined by multicolor FACS, whereas the expansion of the culture was considered in the calculation. The enrichment factor of Vγ9Vδ2 T cells cultured with monocytes in a 1:4 ratio was set to 100% for each experiment. […] This effect was clearly ZA-dependent; cf. FIG. 11a.

NUGC-4 cells = assay type: cell-based, human
Method: (§1) Furthermore, human stomach cancer cells (NUGC-4-luciferase) and murine stomach cancer cells (CLS103-calcein stained) were pretreated with or w/o 5 μM ZA for 2 days. Human Vγ9Vδ2 T cells were MACS purified (day 14) and co-cultured with the cancer cells for 24 h. Cytotoxicity of Vγ9Vδ2 T cells towards non-treated and ZA-treated target cells was determined by measuring remaining luciferase activity or calcein fluorescence; cf. FIG. 11b. Target cells (NUGC-4 and CLS103) were pretreated with or w/o 5 μM ZA for 2 days and subsequently incubated for 4 h with mitomycin c ([…]) to stop proliferation. MACS purified human 14d old resting Vγ9Vδ2 T cells and ^3H-thymidine were added to the target cells and co-cultures were incubated for 48 h at 37° C. Proliferation was determined by measuring ^3H thymidine incorporation in the DNA using a MicroBeta scintillation counter. Proliferation of target cells not treated with ZA and w/o Vγ9Vδ2 T cells was set to 100%; cf. FIG. 11c.

CLS103 cells = system: CLS103 cells
Method: as §1

NUGC-4 xenografts = assay: In vivo tumor targeting of Dyelight 680-labeled antibodies (fluorescence imaging); set-up: species or system nude mice; conditions: time not stated

Row | Compound | claudin18.2 expression compared to medium cultivated cells (KatoIII cells [3]) | level of viable cells compared to medium cultivated target cells (KatoIII cells [3]) | effect of pretreatment on potency of IMAB362 to induce ADCC (KatoIII cells [3]) | cell cycle arrest (phase of the cell cycle) (KatoIII cells [4]) | other results
1 | infliximab: isotype control antibody [reference compound] | – | – | – | – | time within which all mice died [1]: 70 to 80 days
2 | CC(=O)O[C@@]12CO[C@@H]1C[C@H](O)[C@@]1(C)C(=O)[C@H](O)C3=C(C)[C@@H](OC(=O)[C@H](O)[C@@H](NC(=O)OC(C)(C)C)c4ccccc4)C[C@@](O)([C@@H](OC(=O)c4ccccc4)[C@H]21)C3(C)C [Docetaxel, docetaxel] | increased | lower level of viable cells | augmented the potency of IMAB362 to induce ADCC | – | cell cycle arrest (phase) (KatoIII cells [2]): cell cycle arrest in the G2-phase; inhibition of cell growth (KatoIII cells [2]): dose dependent inhibition of cell growth
3 | O=c1[nH]cc(F)c(=O)[nH]1 [5-FU, 5-fluoro-1H-pyrimidine-2,4-dione] | – | – | – | blocked predominantly in the S-phase | CLDN18.2 expression (KatoIII cells [4]): stabilize CLDN18.2-expression
4 | O=P(O)(O)C(O)(Cn1ccnc1)P(=O)(O)O [ZA, [1-hydroxy-2-(1H-imidazol-1-yl)ethane-1,1-diyl]bis(phosphonic acid)] | – | – | – | – | lower expansion of cells in medium without ZA versus with ZA (PBMCs): about 2 fold; enrichment of Vγ9Vδ2 T cells with increase of monocytes in the culture (ZA-dependent) (Vγ9Vδ2 T cells): more than 10 fold; activation of Vγ9Vδ2 T cell cytotoxicity by ZA-pulsed cancer cells (NUGC-4 cells): 5-10 fold; activation of Vγ9Vδ2 T cells (cytotoxicity and proliferation) by ZA-pulsed cancer cells (CLS103 cells): failed to elicit these effects
5 | O=C1[O][Pt]2([NH][C@@H]3CCCC[C@H]3[NH]2)[O]C1=O [Oxaliplatin, [(1R,2R)-cyclohexane-1,2-diamine](ethanedioato-O,O′)platinum(II)] | – | – | – | enrichment of cells predominantly in the G1- and G2-phases | –
6 | COc1cccc2c1C(=O)c1c(O)c3c(c(O)c1C2=O)C[C@@](O)(C(=O)CO)C[C@@H]3O[C@H]1C[C@H](N)[C@@H](O)[C@H](C)O1 [Epirubicin] | – | – | – | cell cycle arrest predominantly in the G2-phase | CLDN18.2 expression (KatoIII cells [4]): stabilize CLDN18.2-expression
7 | CCc1c2c(nc3ccc(OC(=O)N4CCC(N5CCCCC5)CC4)cc13)-c1cc3c(c(=O)n1C2)COC(=O)[C@]3(O)CC [Irinotecan, (S)-4,11-diethyl-3,4,12,14-tetrahydro-4-hydroxy-3,14-dioxo1H-pyrano[3′,4′:6,7]-indolizino[1,2-b]quinolin-9-yl-[1,4′bipiperidine]-1′-carboxylate] | increased | lower level of viable cells | augmented the potency of IMAB362 to induce ADCC | – | cell cycle arrest (phase) (KatoIII cells [2]): cell cycle arrest in the S/G2-phase; inhibition of cell growth (KatoIII cells [2]): dose dependent inhibition of cell growth
8 | rituximab: Dyelight 680-labeled negative control antibody (NUGC-4 negative for CD20) [reference compound] | – | – | – | – | signal of labeled antibody (negative control, NUGC-4 negative for CD20) (NUGC-4 xenografts): No signal is detected
9 | N.N.[Cl][Pt][Cl] [Cisplatin, cis-diamminedichloroplatinum(II)] | increased | lower level of viable cells | augmented the potency of IMAB362 to induce ADCC | – | –
